ChEMBL document CHEMBL5634115, “Exploring novel anticancer pyrazole benzenesulfonamides featuring tail approach strategy as carbonic anhydrase inhibitors” (Eur J Med Chem, 2023)

Assays:
Carbonic anhydrase 9 = Carbonic anhydrase 9 (Homo sapiens, UniProt Q16790)
Description: Binding affinity to human CA9 assessed as inhibition constant

Carbonic anhydrase 12 [1] = molecular target: T1, Carbonic anhydrase 12 (Homo sapiens, UniProt O43570)
Description: Binding affinity to human CA12 assessed as inhibition constant

Carbonic anhydrase 12 [2] = molecular target: T1, Carbonic anhydrase 12; remark: listed apart in the source
Description: Inhibition of human carbonic anhydrase 12 preincubated for 15 mins followed by substrate addition and measured after 30 mins by spectrophotometric method

T1 sequence (O43570 whole entry): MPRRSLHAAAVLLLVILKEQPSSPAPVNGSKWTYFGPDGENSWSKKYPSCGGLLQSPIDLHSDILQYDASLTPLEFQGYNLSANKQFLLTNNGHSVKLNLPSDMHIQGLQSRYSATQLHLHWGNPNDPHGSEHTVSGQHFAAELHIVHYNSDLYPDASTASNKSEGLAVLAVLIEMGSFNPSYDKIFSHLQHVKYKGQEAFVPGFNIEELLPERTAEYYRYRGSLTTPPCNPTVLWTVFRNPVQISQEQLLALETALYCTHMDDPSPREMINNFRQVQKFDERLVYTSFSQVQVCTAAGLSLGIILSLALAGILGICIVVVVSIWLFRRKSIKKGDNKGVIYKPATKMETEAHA

SMILES	Ki (Carbonic anhydrase 9)	Ki (Carbonic anhydrase 12 [1])	IC50 (Carbonic anhydrase 12 [2])
CCOC(=O)c1cc(-c2ccccc2)n(-c2ccc(S(N)(=O)=O)cc2)n1	225 nM		
CCOC(=O)c1cc(-c2ccc([N+](=O)[O-])cc2)n(-c2ccc(S(N)(=O)=O)cc2)n1	20.5 nM		
Cc1ccc(-c2nn(-c3ccc(S(N)(=O)=O)cc3)cc2/C=N/Nc2ccc(S(N)(=O)=O)cc2)cc1			144 nM
CCOC(=O)c1cc(-c2ccc(C)cc2)n(-c2ccc(S(N)(=O)=O)cc2)n1	176 nM		

Further compounds by falling Ki (Carbonic anhydrase 9), results first:

Ki (Carbonic anhydrase 9)	Ki (Carbonic anhydrase 12 [1])	IC50 (Carbonic anhydrase 12 [2])	SMILES
18.9 nM	32.7 nM		NS(=O)(=O)c1ccc(C(=O)N/N=C/c2ccccc2O)cc1
7.79 nM	7.78 nM		CCn1c(-c2cc(C(=O)O)[nH]n2)cc2ccccc21
